This is an account of results in paper PMC10854894, “A New Benzo[6,7]oxepino[3,2-b] Pyridine Derivative Induces Apoptosis in Canine Mammary Cancer Cell Lines” (Animals : an Open Access Journal from MDPI, 2024).

What all share (test): MTT cell proliferation/cytotoxicity assay
Format in all cases: cell-based, canine
What all share (details): Canis lupus familiaris, read-out: Half-Maximal Inhibitory Concentration (IC50)

One test deals with MDCK cells. Here is the method: (§1) The cytotoxic effects of the three BZOP derivatives were studied via the 3-(4,5-Dimethyl-2-thiazolyl)-2,5-diphenyl-2H-tetrazolium bromide (MTT) assay. The REM134, CMGT071020, and MDCK cell lines were seeded at a density of 5 × 10^3 cells/well in 96-well plates and allowed to grow for 24 h. They were then treated with the three BZOP derivatives at various concentrations (0–300 µM) for 24 or 48 h, whereas cells treated with the culture medium containing 0.1% dimethyl sulfoxide (DMSO) were used as a negative control as the compounds were dissolved in DMSO. Subsequently, the cells were incubated with 10 µL of an MTT solution (Sigma, St. Louis, MO, USA) for 4 h. After the incubation with MTT solution, 100 µL of a solubilization solution was added to dissolve water-insoluble purple formazan crystals, and the plate was incubated overnight at 37 °C in 5% CO2. The absorbance of the formazan solution was measured using a Synergy H1 hybrid multi-mode microplate reader (BioTek, Winooski, VT, USA) at 570 nm. The experiment was conducted with four replicates, and the relative cell viability (%) of the treated cells was expressed as a percentage relative to the untreated control cells, which were considered to have 100% viability.

Another test has as its system REM134 cells. Here is the method:
as §1

The next test deals with CMGT071020 cells. Here is the method: as §1

pIC50: −log10 of the molar value. Where two headings read alike, the source gives them in different places.

For `Cc1ncccc1Oc1ccccc1C=O` [MPOBA, 2-((2-methylpyridin-3-yl)oxy)benzaldehyde], the pIC50 in the test on MDCK cells (24 h) is under 3.52; with MDCK cells (48 h), 3.57; with REM134 cells (REM134, 24 h), 3.58; in the test on REM134 cells (REM134, 48 h), 4.06; with CMGT071020 cells (CMGT071020, 24 h) it was under 3.52; in the test on CMGT071020 cells (CMGT071020, 48 h), 3.98.
